According to US12258328B2, “6-membered heteroaryl-containing aminopyridine compounds as EGFR inhibitors” (YUHAN CORPORATION, priority 2021, dated 2025):
Like-named read-outs stand apart in the source and are kept apart here.

Legend:
[1] = target: EGFR L858R/T790M/C797S (Homo sapiens, UniProt P00533, C797S/L858R/T790M); assay: Biochemical EGFR kinase assay (Lance Ultra TR-FRET), triple mutant L858R/T790M/C797S
In short: (§1)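 Step 1: compound in kinase buffer, 0.003–10 μM. Step 2: kinase reaction 1 h at room temperature. Step 4: TR-FRET read at 615/665 nm; IC50 calculated.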

[2] = target: EGFR L858R/C797S (Homo sapiens, UniProt P00533, C797S/L858R); assay: Biochemical EGFR kinase assay (Lance Ultra TR-FRET), double mutant L858R/C797S
In short: as §1

[3] = target: EGFR del19/T790M/C797S (Homo sapiens, UniProt P00533, C797S/DEL746-750/T790M); assay: Biochemical EGFR kinase assay (Lance Ultra TR-FRET), triple mutant del19/T790M/C797S
In short: as §1

[4] = target: EGFR del19/C797S (Homo sapiens, UniProt P00533, C797S/DEL746-750); assay: Biochemical EGFR kinase assay (Lance Ultra TR-FRET), double mutant del19/C797S
In short: as §1

[5] = target: EGFR wildtype (Homo sapiens, UniProt P00533); assay: Biochemical EGFR kinase assay (Lance Ultra TR-FRET), wildtype
In short: as §1

[6] = Km ATP, read-out: IC50 L858R/T790M/C797S (nM) Km ATP
[7] = Km ATP, read-out: IC50 L858R/C797S (nM) Km ATP
[8] = Km ATP, read-out: IC50 del19/T790M/C797S (nM) Km ATP
[9] = Km ATP, read-out: IC50 del19/C797S (nM) Km ATP
[10] = Km ATP, read-out: IC50 WT (nM) Km ATP
[11] = IC50 L858R/T790M/C797S (nM) 100 μM ATP, 100 μM ATP
[12] = IC50 L858R/C797S (nM) 100 μM ATP, 100 μM ATP
[13] = IC50 del19/T790M/C797S (nM) 100 μM ATP, 100 μM ATP
[14] = IC50 del19/C797S (nM) 100 μM ATP, 100 μM ATP
[15] = IC50 WT (nM) 100 μM ATP, 100 μM ATP

Chain of EGFR L858R/C797S (P00533 25-1210 C797S/L858R): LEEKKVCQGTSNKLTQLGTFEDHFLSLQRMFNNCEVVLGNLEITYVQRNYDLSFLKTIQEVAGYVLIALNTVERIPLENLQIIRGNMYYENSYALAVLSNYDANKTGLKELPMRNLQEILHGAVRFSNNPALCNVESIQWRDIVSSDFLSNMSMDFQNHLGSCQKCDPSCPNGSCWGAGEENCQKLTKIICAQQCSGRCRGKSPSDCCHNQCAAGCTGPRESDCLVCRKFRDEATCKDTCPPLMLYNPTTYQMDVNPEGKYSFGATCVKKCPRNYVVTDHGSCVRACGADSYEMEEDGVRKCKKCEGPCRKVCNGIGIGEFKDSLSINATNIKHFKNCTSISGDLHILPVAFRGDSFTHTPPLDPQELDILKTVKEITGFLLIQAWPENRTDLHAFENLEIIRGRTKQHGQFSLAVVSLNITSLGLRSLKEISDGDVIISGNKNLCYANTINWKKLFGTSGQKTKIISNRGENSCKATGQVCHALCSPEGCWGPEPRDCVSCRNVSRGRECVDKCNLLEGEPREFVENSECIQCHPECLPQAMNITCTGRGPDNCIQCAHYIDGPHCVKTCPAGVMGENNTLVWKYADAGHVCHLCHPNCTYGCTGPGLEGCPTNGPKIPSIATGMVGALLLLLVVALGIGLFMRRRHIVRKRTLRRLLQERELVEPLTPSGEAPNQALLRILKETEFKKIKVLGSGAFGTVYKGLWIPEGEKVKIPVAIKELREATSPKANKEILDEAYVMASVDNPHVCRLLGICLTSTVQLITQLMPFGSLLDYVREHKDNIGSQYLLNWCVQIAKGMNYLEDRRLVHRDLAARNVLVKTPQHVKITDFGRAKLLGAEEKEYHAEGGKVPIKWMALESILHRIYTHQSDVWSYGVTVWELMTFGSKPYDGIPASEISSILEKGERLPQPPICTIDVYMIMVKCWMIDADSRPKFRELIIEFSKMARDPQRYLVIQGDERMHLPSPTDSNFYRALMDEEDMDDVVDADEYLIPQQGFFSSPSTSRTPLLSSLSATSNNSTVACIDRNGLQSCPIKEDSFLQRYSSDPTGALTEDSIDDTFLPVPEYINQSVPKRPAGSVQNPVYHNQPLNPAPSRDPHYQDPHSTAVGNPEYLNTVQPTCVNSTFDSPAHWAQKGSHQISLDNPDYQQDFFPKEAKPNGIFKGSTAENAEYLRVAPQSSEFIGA
Chain of EGFR wildtype (P00533 25-1210): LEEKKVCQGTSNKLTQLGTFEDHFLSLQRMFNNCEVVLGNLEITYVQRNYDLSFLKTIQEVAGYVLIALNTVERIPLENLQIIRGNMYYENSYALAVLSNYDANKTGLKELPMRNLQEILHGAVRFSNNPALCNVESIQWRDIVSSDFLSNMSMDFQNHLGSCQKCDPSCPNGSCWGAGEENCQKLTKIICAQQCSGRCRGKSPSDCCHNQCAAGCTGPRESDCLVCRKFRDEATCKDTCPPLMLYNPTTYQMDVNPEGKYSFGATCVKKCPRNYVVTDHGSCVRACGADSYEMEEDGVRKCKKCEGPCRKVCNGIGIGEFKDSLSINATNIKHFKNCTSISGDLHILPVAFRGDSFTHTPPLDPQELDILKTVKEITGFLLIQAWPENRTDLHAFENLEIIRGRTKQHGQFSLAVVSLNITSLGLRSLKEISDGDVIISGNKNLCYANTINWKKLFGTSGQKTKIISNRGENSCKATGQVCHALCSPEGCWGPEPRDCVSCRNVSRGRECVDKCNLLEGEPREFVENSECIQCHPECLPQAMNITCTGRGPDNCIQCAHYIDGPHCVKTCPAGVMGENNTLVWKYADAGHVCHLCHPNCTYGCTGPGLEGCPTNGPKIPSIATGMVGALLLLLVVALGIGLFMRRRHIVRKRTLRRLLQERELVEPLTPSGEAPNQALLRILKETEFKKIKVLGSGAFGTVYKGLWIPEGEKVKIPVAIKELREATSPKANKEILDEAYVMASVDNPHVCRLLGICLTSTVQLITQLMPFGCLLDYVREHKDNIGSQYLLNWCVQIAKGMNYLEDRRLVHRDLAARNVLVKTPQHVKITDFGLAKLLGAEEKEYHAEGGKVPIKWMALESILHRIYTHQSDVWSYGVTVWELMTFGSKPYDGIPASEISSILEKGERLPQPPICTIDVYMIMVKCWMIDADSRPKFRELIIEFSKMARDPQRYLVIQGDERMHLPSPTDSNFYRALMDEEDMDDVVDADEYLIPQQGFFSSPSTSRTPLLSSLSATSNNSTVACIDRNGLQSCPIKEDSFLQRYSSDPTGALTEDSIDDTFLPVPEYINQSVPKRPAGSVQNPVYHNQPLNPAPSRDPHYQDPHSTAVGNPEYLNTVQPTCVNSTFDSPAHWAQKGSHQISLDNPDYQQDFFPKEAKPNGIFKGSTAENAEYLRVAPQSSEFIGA
Chain of EGFR del19/C797S (P00533 with tags, fused parts or gaps DEL746-750/C797S): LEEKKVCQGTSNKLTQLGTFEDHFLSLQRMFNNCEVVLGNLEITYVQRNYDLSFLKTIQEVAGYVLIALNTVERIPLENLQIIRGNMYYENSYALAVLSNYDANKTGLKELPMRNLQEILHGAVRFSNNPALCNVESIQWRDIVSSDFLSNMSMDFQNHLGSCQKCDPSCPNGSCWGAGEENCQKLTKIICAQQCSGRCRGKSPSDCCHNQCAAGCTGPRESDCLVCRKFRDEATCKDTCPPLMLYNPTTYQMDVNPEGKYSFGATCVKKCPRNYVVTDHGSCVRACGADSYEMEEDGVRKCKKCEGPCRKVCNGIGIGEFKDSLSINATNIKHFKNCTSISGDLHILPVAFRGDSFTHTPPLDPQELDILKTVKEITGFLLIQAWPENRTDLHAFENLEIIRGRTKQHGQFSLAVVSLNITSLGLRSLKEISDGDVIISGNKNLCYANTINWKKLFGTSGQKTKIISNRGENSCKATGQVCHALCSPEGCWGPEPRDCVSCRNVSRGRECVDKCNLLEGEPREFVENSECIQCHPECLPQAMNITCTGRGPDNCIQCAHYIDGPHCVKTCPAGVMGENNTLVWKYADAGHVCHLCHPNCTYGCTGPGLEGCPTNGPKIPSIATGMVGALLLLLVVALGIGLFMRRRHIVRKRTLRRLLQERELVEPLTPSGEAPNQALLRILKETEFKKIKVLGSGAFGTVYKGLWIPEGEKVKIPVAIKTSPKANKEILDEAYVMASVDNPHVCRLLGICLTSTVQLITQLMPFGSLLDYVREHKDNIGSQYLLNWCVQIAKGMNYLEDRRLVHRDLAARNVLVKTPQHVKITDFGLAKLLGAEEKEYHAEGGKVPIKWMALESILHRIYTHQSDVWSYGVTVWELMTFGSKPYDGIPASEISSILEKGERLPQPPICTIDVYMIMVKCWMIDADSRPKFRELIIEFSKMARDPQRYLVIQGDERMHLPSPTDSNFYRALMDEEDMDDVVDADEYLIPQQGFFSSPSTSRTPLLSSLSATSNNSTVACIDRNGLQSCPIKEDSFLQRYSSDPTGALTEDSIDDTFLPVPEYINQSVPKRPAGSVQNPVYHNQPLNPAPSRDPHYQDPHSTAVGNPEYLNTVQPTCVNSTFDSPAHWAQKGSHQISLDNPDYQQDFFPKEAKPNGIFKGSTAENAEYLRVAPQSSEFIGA
Chain of EGFR del19/T790M/C797S (P00533 with tags, fused parts or gaps DEL746-750/T790M/C797S): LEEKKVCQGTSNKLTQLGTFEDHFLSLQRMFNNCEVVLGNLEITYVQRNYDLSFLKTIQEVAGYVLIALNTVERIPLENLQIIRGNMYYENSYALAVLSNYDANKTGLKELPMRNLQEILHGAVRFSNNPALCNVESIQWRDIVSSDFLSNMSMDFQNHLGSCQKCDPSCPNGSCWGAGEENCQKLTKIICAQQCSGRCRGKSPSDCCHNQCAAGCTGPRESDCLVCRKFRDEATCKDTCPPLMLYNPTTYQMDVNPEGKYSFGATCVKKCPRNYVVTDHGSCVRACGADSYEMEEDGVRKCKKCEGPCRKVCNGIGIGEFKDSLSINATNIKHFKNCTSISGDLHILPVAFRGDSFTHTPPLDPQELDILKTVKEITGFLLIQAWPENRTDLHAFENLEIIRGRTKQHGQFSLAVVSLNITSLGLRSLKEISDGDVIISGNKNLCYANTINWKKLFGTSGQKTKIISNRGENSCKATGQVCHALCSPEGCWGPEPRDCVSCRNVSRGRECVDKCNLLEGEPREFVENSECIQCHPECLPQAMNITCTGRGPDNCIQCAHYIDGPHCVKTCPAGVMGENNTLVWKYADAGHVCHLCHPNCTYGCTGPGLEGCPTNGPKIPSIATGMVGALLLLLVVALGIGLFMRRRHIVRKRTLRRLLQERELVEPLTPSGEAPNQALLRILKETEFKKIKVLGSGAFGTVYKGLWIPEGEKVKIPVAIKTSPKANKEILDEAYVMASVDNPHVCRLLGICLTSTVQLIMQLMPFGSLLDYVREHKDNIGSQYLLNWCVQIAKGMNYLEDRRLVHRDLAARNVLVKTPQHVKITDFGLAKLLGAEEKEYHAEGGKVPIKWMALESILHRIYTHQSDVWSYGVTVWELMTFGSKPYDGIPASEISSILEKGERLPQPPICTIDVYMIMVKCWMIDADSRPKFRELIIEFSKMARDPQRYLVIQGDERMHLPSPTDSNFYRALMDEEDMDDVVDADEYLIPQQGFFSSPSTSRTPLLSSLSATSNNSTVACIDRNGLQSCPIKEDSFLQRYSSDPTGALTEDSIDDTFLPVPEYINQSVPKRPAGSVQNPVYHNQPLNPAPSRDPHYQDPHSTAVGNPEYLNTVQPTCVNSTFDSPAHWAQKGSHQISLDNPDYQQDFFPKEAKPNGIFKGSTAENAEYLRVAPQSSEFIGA

Structure (SMILES) | IC50 [1, 6] [nM] | IC50 [2, 7] [nM] | IC50 [3, 8] [nM] | IC50 [4, 9] [nM] | IC50 [5, 10] [nM] | IC50 [1, 11] [nM] | IC50 [2, 12] [nM] | IC50 [3, 13] [nM] | IC50 [4, 14] [nM] | IC50 [5, 15] [nM] | IC50 ([1]; ATP at Km, read-out: IC50 L858R/T790M/C797S, Km ATP) [nM] | IC50 ([2]; ATP at Km, read-out: IC50 L858R/C797S, Km ATP) [nM] | IC50 ([3]; ATP at Km, read-out: IC50 del19/T790M/C797S, Km ATP) [nM] | IC50 ([4]; ATP at Km, read-out: IC50 del19/C797S, Km ATP) [nM] | IC50 ([5]; ATP at Km, read-out: IC50 WT, Km ATP) [nM]
C[C@]1(O)CC[C@@H](Nc2cc(Nc3ccnc(-c4cnn(S(=O)(=O)C5CC5)c4)n3)ncc2-c2ccc(CN3CCC(F)(F)CC3)cn2)CC1 [Example 33, (1s,4s)-4-((6′-((2-(1-(Cyclopropylsulfonyl)-1H-pyrazol-4-yl)pyrimidin-4-yl)amino)-5-((4,4-difluoropiperidin-1-yl)methyl)-[2,3′-bipyridin]-4′-yl)amino)-1-methylcyclohexan-1-ol] | 1.7 | 1.7 | 2.6 | 2.1 | 7.9 | 3.1 | 29.3 | 3.9 | 1.3 | 813 | – | – | – | – | –
CC(O)(c1ccc(-c2cnc(Nc3ccnc(-c4cnn(S(=O)(=O)C5CC5)c4)n3)cc2NC2CCC(F)CC2)nc1)C(F)(F)F (stereo not shown) [Example 265, 2-(6′-((2-(1-(Cyclopropylsulfonyl)-1H-pyrazol-4-yl)pyrimidin-4-yl)amino)-4′-(((1s,4s)-4-fluorocyclohexyl)amino)-[2,3′-bipyridin]-5-yl)-1,1,1-trifluoropropan-2-ol] | – | – | – | – | – | – | – | – | – | – | 22 | 85.3 | 31 | 16.9 | 365

Results, then the molecule that gave them:

IC50 [1, 6] [nM] | IC50 [2, 7] [nM] | IC50 [3, 8] [nM] | IC50 [4, 9] [nM] | IC50 [5, 10] [nM] | IC50 [1, 11] [nM] | IC50 [2, 12] [nM] | IC50 [3, 13] [nM] | IC50 [4, 14] [nM] | IC50 [5, 15] [nM] | IC50 ([1]; ATP at Km, read-out: IC50 L858R/T790M/C797S, Km ATP) [nM] | IC50 ([2]; ATP at Km, read-out: IC50 L858R/C797S, Km ATP) [nM] | IC50 ([3]; ATP at Km, read-out: IC50 del19/T790M/C797S, Km ATP) [nM] | IC50 ([4]; ATP at Km, read-out: IC50 del19/C797S, Km ATP) [nM] | IC50 ([5]; ATP at Km, read-out: IC50 WT, Km ATP) [nM] | Structure (SMILES)
0.6 | 15.6 | 0.9 | 32.1 | 34.2 | – | – | – | – | – | – | – | – | – | – | C[C@]1(O)CC[C@@H](Nc2cc(Nc3ccnc(-c4cnn(S(=O)(=O)C5CC5)c4)n3)ncc2-c2cnc(C(F)(F)F)cn2)CC1 [Example 134, (1s,4s)-4-((2-((2-(1-(Cyclopropylsulfonyl)-1H-pyrazol-4-yl)pyrimidin-4-yl)amino)-5-(5-(trifluoromethyl)pyrazin-2-yl)pyridin-4-yl)amino)-1-methylcyclohexan-1-ol]
0.1 | 0.8 | 0.03 | 1.2 | 12.4 | – | – | – | – | – | – | – | – | – | – | CN1CCC(Oc2ccc(-c3cnc(Nc4ccnc(-c5cnn(CC(F)F)c5)n4)cc3NC3CCCC(F)C3)nc2)CC1 (stereo not shown) [Example 141, N^6′-(2-(1-(2,2-Difluoroethyl)-1H-pyrazol-4-yl)pyrimidin-4-yl)-N^4′-(3-fluorocyclohexyl)-5-((1-methylpiperidin-4-yl)oxy)-[2,3′-bipyridine]-4′,6′-diamine]
0.1 | 0.1 | 0.4 | 0.1 | 0.2 | 0.3 | 0.2 | 0.4 | 0.3 | 31.7 | – | – | – | – | – | CN1CCN(c2ccc(-c3cnc(Nc4ccnc(-c5cnn(S(=O)(=O)C6CC6)c5)n4)cc3N[C@H]3CC[C@@H](CO)CC3)nc2)CC1 [Example 85, ((1s,4s)-4-((6′-((2-(1-(cyclopropylsulfonyl)-1H-pyrazol-4-yl)pyrimidin-4-yl)amino)-5-(4-methylpiperazin-1-yl)-[2,3′-bipyridin]-4′-yl)amino)cyclohexyl)methanol]
0.2 | 0.3 | 0.6 | 0.3 | – | 0.3 | – | 0.3 | 0.2 | 811 | – | – | – | – | – | C[C@]1(O)CC[C@@H](Nc2cc(Nc3ccnc(-c4cnn(S(=O)(=O)C5CC5)c4)n3)ncc2-c2ccccn2)CC1 [Example 35, (1s,4s)-4-((6′-((2-(1-(Cyclopropylsulfonyl)-1H-pyrazol-4-yl)pyrimidin-4-yl)amino)-[2,3′-bipyridin]-4′-yl)amino)-1-methylcyclohexan-1-ol]
